Assay results reported in ChEMBL document CHEMBL1201862, “PubChem BioAssay data set” (2004).
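Test compounds were applied to cells in 96-well plates for 48 hours at 5 doses. GI50: concentration for 50% inhibition of growth.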 Active and inactive are the calls of the source. Rule as the data show it: active = GI50 up to about 1.1 µM and inactive = higher.

How the values were obtained:
Test in all cases: growth of human tumour cells (NCI), 48 h
[1] = test system: OVCAR-5
[2] = test system: M14
[3] = test system: UO-31
[4] = test system: A498
[5] = test system: UACC-257
[6] = test system: K562
[7] = test system: OVCAR-3
[8] = test system: MDA-MB-231
[9] = test system: OVCAR-8
[10] = test system: DU-145
[11] = test system: HCT-15
[12] = test system: MDA-N
[13] = test system: EKVX
[14] = test system: NCI-H226
[15] = test system: A549
[16] = test system: COLO 205
[17] = test system: HOP-62
[18] = test system: SR
[19] = test system: MDA-MB-435
[20] = test system: NCI-H522

| SMILES | GI50 [1] | GI50 [2] | GI50 [3] | GI50 [4] | GI50 [5] | GI50 [6] | GI50 [7] | GI50 [8] | GI50 [9] | GI50 [10] | GI50 [11] [µM] | GI50 [12] | GI50 [13] | GI50 [14] | GI50 [15] | GI50 [16] | GI50 [17] | GI50 [18] | GI50 [19] | GI50 [20] |
| --- | --- | --- | --- | --- | --- | --- | --- | --- | --- | --- | --- | --- | --- | --- | --- | --- | --- | --- | --- | --- |
| O=[N+]([O-])c1ccc(/C=C/c2cc(-c3ccccc3)nc3ccc4ccccc4c23)cc1 | > 100 µM (inactive) | > 100 µM (inactive) | > 100 µM (inactive) | > 100 µM (inactive) | > 100 µM (inactive) | > 100 µM (inactive) | > 100 µM (inactive) | > 100 µM (inactive) | > 100 µM (inactive) | > 100 µM (inactive) | > 100 | > 100 µM (inactive) | > 100 µM (inactive) | > 100 µM (inactive) | > 100 µM (inactive) | > 100 µM (inactive) | > 100 µM (inactive) | > 100 µM (inactive) | > 100 µM (inactive) |  |
| CN1C(=O)C2(Cc3cn(C45CC67SSC(CO)(C(=O)N6C4Nc4ccccc45)N(C)C7=O)c4ccccc34)SSC1(CO)C(=O)N2C (stereo not drawn) | 0.12 µM (active) | < 0.01 µM (active) | 0.0335 µM (active) | 0.0291 µM (active) | 0.0188 µM (active) | < 0.01 µM (active) | 0.0163 µM (active) | 0.0133 µM (active) | 0.0206 µM (active) | 0.0261 µM (active) | < 0.01 | 0.0198 µM (active) | 0.0282 µM (active) |  | 0.172 µM (active) | < 0.01 µM (active) | 0.0634 µM (active) | < 0.01 µM (active) | 0.0335 µM (active) | < 0.01 µM (active) |
| Fc1ccc(NCn2nc(COc3ccccc3Cl)n(/N=C/c3ccc(-c4ccc(Cl)cc4Cl)o3)c2=S)cc1Cl | > 100 µM (inactive) | 28.5 µM (inactive) | 32.9 µM (inactive) | 16.1 µM (inactive) | 41.5 µM (inactive) | 15.4 µM (inactive) | 37.9 µM (inactive) | 44.4 µM (inactive) | 36.1 µM (inactive) | 47.6 µM (inactive) | 26.7 | 38.5 µM (inactive) | > 100 µM (inactive) | 83.8 µM (inactive) |  |  | 52.4 µM (inactive) | 16.6 µM (inactive) | 41.4 µM (inactive) | 36.7 µM (inactive) |
| COc1ccc(N2C(=O)CC(c3c[nH]c4ccccc34)C2=O)cc1 (stereo not drawn) | > 100 µM (inactive) | > 100 µM (inactive) | > 100 µM (inactive) | > 100 µM (inactive) | > 100 µM (inactive) | > 100 µM (inactive) | > 100 µM (inactive) | > 100 µM (inactive) | > 100 µM (inactive) | > 100 µM (inactive) | > 100 | > 100 µM (inactive) | > 100 µM (inactive) | > 100 µM (inactive) | > 100 µM (inactive) | > 100 µM (inactive) | > 100 µM (inactive) | > 100 µM (inactive) | > 100 µM (inactive) |  |
| COC(=O)C12CCC(C)(C)CC1C1=CCC3C4(C)CC(O)C(O)C(C)(C(=O)OC)C4CCC3(C)C1(CO)CC2 (stereo not drawn) | 17.9 µM (inactive) | 6.75 µM (inactive) |  | 18.7 µM (inactive) | 17.2 µM (inactive) | 15.6 µM (inactive) | 16.7 µM (inactive) | 17.4 µM (inactive) | 13.6 µM (inactive) | 15.5 µM (inactive) | 14.5 | 13.3 µM (inactive) | 18.9 µM (inactive) | 16.9 µM (inactive) | 13.4 µM (inactive) | 15.3 µM (inactive) | 17.9 µM (inactive) | 3.42 µM (inactive) | 15.1 µM (inactive) | 14.9 µM (inactive) |
| CC1(C)C/C=C\CCC(O)C(O)CCC(C)(C)C1=O (stereo not drawn) | > 100 µM (inactive) |  | > 100 µM (inactive) | > 100 µM (inactive) | > 100 µM (inactive) | > 100 µM (inactive) | > 100 µM (inactive) | > 100 µM (inactive) | > 100 µM (inactive) | > 100 µM (inactive) | > 100 | > 100 µM (inactive) | > 100 µM (inactive) | > 100 µM (inactive) | > 100 µM (inactive) | > 100 µM (inactive) | > 100 µM (inactive) | > 100 µM (inactive) | > 100 µM (inactive) | 62.2 µM (inactive) |
| OCC1OC(Oc2cc(O)cc(/C=C\c3ccc(O)cc3)c2)C(O)C(O)C1O (stereo not drawn) | > 100 µM (inactive) |  | > 100 µM (inactive) | > 100 µM (inactive) | > 100 µM (inactive) | > 100 µM (inactive) | > 100 µM (inactive) | > 100 µM (inactive) | > 100 µM (inactive) | > 100 µM (inactive) | > 100 | > 100 µM (inactive) | > 100 µM (inactive) | > 100 µM (inactive) | > 100 µM (inactive) |  | > 100 µM (inactive) | > 100 µM (inactive) | > 100 µM (inactive) | > 100 µM (inactive) |
| COC(=O)C1=NN2c3ccccc3C(=O)OCCC2(C)C1 (stereo not drawn) | > 100 µM (inactive) |  | > 100 µM (inactive) | > 100 µM (inactive) |  | > 100 µM (inactive) | > 100 µM (inactive) | > 100 µM (inactive) | > 100 µM (inactive) | > 100 µM (inactive) | > 100 | > 100 µM (inactive) | > 100 µM (inactive) | > 100 µM (inactive) | > 100 µM (inactive) | > 100 µM (inactive) | > 100 µM (inactive) | > 100 µM (inactive) | > 100 µM (inactive) | > 100 µM (inactive) |
| CC(=O)c1nc2ccccc2n1C(C)C(=O)c1ccccc1 (stereo not drawn) |  | 42.8 µM (inactive) | 50.7 µM (inactive) | > 100 µM (inactive) | 54.6 µM (inactive) | 36.5 µM (inactive) | 41.8 µM (inactive) | 36.1 µM (inactive) | 23.1 µM (inactive) | 64.9 µM (inactive) | 81.5 | 54.1 µM (inactive) | > 100 µM (inactive) | > 100 µM (inactive) | 27.1 µM (inactive) | > 100 µM (inactive) | 57.1 µM (inactive) | 36.3 µM (inactive) | 52.7 µM (inactive) | 15.5 µM (inactive) |
| O=C(/C=C/c1ccccc1)CCC1C(=O)c2ccccc2C1=O | > 100 µM (inactive) | > 100 µM (inactive) | > 100 µM (inactive) | > 100 µM (inactive) | > 100 µM (inactive) | > 100 µM (inactive) | > 100 µM (inactive) | > 100 µM (inactive) | > 100 µM (inactive) | > 100 µM (inactive) | 42.6 | 43.8 µM (inactive) | > 100 µM (inactive) | > 100 µM (inactive) | > 100 µM (inactive) | 64.9 µM (inactive) |  | 66.2 µM (inactive) | > 100 µM (inactive) | > 100 µM (inactive) |
| N=C(N)NS(=O)(=O)c1ccc(Nc2c3ccccc3nc3c(C(=O)NC(CO)(CO)CO)cccc23)cc1 | 11.9 µM (inactive) | 30.6 µM (inactive) | 27.5 µM (inactive) | 19.3 µM (inactive) | > 100 µM (inactive) | 24.2 µM (inactive) | 27.5 µM (inactive) | 21.8 µM (inactive) | 29 µM (inactive) | 32.4 µM (inactive) | 93.8 | 35.6 µM (inactive) | > 100 µM (inactive) |  | 9.66 µM (inactive) | 12.6 µM (inactive) | 13.6 µM (inactive) | 12.5 µM (inactive) | 24.9 µM (inactive) | 11.7 µM (inactive) |
| Cn1c2ccc3cc2c(=S)c2cc(ccc21)OCCOCCOCCOCCOCCO3 | > 10 µM (inactive) | > 10 µM (inactive) |  | > 10 µM (inactive) | > 10 µM (inactive) | > 10 µM (inactive) | > 10 µM (inactive) | > 10 µM (inactive) | > 10 µM (inactive) | > 10 µM (inactive) | > 10 | > 10 µM (inactive) | > 10 µM (inactive) | > 10 µM (inactive) | > 10 µM (inactive) | > 10 µM (inactive) | > 10 µM (inactive) | > 10 µM (inactive) | > 10 µM (inactive) | > 10 µM (inactive) |
| COc1ccc(-c2coc3cc(OC)cc(O)c3c2=O)cc1 [4',7-DIMETHOXY-5-HYDROXYGENISTEIN] | > 100 µM (inactive) | 52.7 µM (inactive) |  | 24.8 µM (inactive) | > 100 µM (inactive) | > 100 µM (inactive) | > 100 µM (inactive) | 31 µM (inactive) | > 100 µM (inactive) | > 100 µM (inactive) | > 100 | > 100 µM (inactive) | > 100 µM (inactive) | > 100 µM (inactive) | > 100 µM (inactive) | > 100 µM (inactive) | 32.4 µM (inactive) | > 100 µM (inactive) | > 100 µM (inactive) | > 100 µM (inactive) |
| COC(=O)[C@@]12OC[C@]34[C@H]([C@@H](O)[C@@H]1O)[C@@]1(C)CC(=O)C(O)=C(C)[C@@H]1C[C@H]3OC(=O)[C@H](OC(=O)/C=C(\C)C(C)C)[C@@H]24 [BRUCEANTIN] | 0.0265 µM (active) | 0.00346 µM (active) | 0.0598 µM (active) | 0.02 µM (active) | 0.0208 µM (active) | 0.02 µM (active) | 0.0247 µM (active) | 0.0384 µM (active) | 0.02 µM (active) | 0.0142 µM (active) | 0.0214 | < 0.0101 µM (active) | 0.0223 µM (active) | 0.02 µM (active) | 0.02 µM (active) | 0.0242 µM (active) | 0.02 µM (active) | 0.00512 µM (active) | 0.0188 µM (active) |  |
